From patent US8802597B2, “Herbicidal pyrimidines” (E I du Pont de Nemours and Company, priority 2003, dated 2014)
Read-outs that look alike come from different tables or passages of the source.

Columns and labels:
Assay type in all cases: in vivo
[1] = system: barnyardgrass (Echinochloa crus-galli); test: Test B flooded paddy test; conditions: Echinochloa crus-galli, Flood, scale 0 to 100, read-out: Plant response rating, Barnyardgrass
In short: (§1)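 Visual injury scoring (0 = no effect, 100 = complete control) versus controls made 13 to 15 days after treatment in the greenhouse. Test species were grown in flooded paddy to the 2-leaf stage: rice, barnyardgrass, umbrella sedge, duck salad.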

rice (Oryza sativa) = test: Test B flooded paddy test; conditions: Oryza sativa, Flood, scale 0 to 100, read-out: Plant response rating, Rice
In short: as §1

[2] = system: duck salad (Heteranthera limosa); test: Test B flooded paddy test; conditions: Heteranthera limosa, Flood, scale 0 to 100, read-out: Plant response rating, Ducksalad
In short: as §1

[3] = system: umbrella sedge (Cyperus difformis); test: Test B flooded paddy test; conditions: Cyperus difformis, Flood, scale 0 to 100, read-out: Plant response rating, Sedge, Umbrella
In short: as §1

[4] = system: pigweed (Amaranthus retroflexus); test: Test B pre/postemergence; conditions: for pest or weed control at 62 g/ha: Amaranthus retroflexus, 62 g ai/ha
In short: (§2)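 Formulation: non-phytotoxic solvent blend with surfactant. Timing: preemergence on seeds, postemergence at 1- to 4-leaf (2–18 cm). Assessment: visual, 0–100 against controls, after 13–15 days' greenhouse growth.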

[5] = system: barnyardgrass (Echinochloa crus-galli); test: Test B pre/postemergence; conditions: scale 0 to 100 (0 no effect, 100 complete control); for pest or weed control at 62 g/ha: Echinochloa crus-galli, 62 g ai/ha
In short: as §2

[6] = system: velvetleaf (Abutilon theophrasti); test: Test B pre/postemergence; conditions: for pest or weed control at 62 g/ha: Abutilon theophrasti, 62 g ai/ha
In short: as §2

corn (Zea mays) = test: Test B pre/postemergence
In short: as §2

[7] = system: morningglory (Ipomoea coccinea); test: Test B pre/postemergence; conditions: for pest or weed control at 62 g/ha: Ipomoea, 62 g ai/ha
In short: as §2

[8] = system: giant foxtail (Setaria faberii); test: Test B pre/postemergence; conditions: for pest or weed control at 62 g/ha: Setaria faberi, 62 g ai/ha
In short: as §2

[9] = system: wheat (Triticum aestivum); test: Test B pre/postemergence; conditions: scale 0 to 100 (0 no effect, 100 complete control); for plant injury at 62 g/ha: Triticum aestivum, 62 g ai/ha
In short: as §2

[10] = system: crabgrass (Digitaria sanguinalis); test: Test B pre/postemergence; conditions: for pest or weed control at 62 g/ha: Digitaria sanguinalis, 62 g ai/ha
In short: as §2

[11] = system: cocklebur (Xanthium strumarium); test: Test B pre/postemergence; conditions: for pest or weed control at 62 g/ha: Xanthium strumarium, 62 g ai/ha
In short: as §2

[12] = system: Surinam grass (Brachiaria decumbens); test: Test B pre/postemergence; conditions: for pest or weed control at 62 g/ha: Urochloa decumbens, 62 g ai/ha
In short: as §2

[13] = system: lambsquarters (Chenopodium album); test: Test B pre/postemergence; conditions: for pest or weed control at 62 g/ha: Chenopodium album, 62 g ai/ha
In short: as §2

[14] = system: blackgrass (Alopecurus myosuroides); test: Test B postemergence; conditions: scale 0 to 100 (0 no effect, 100 complete control)
In short: as §2

wild oat (Avena fatua) = test: Test B postemergence; conditions: scale 0 to 100 (0 no effect, 100 complete control)
In short: as §2

[15] = Postemergence, 125 g ai/ha, scale 0 to 100 (0 no effect, 100 complete control)
[16] = Preemergence, 125 g ai/ha, scale 0 to 100 (0 no effect, 100 complete control)

With Nc1nc(C2CC2)nc(C(=O)[O-])c1Br.[Na+] [Compound 113, 6-amino-5-bromo-2-cyclopropyl-4-pyrimidinecarboxylic acid monosodium salt] as the molecule, how does the pest or weed control at 125 g/ha ([1]; 125 g ai/ha) read?
Its pest or weed control at 125 g/ha is 0%.

And the pest or weed control at 500 g/ha ([1]; 500 g ai/ha)?
The pest or weed control at 500 g/ha was 0%.

And the plant injury at 125 g/ha (rice (Oryza sativa); 125 g ai/ha)?
Its plant injury at 125 g/ha is 0%.

And the plant injury at 500 g/ha (rice (Oryza sativa); 500 g ai/ha)?
Its plant injury at 500 g/ha is 0%.

And the pest or weed control at 125 g/ha ([2]; 125 g ai/ha)?
Its pest or weed control at 125 g/ha is 0%.

And the pest or weed control at 500 g/ha ([2]; 500 g ai/ha)?
Its pest or weed control at 500 g/ha is 0%.

What about the pest or weed control at 125 g/ha ([3]; 125 g ai/ha) of the same molecule?
Its pest or weed control at 125 g/ha is 0%.

And the pest or weed control at 500 g/ha ([3]; 500 g ai/ha)?
Its pest or weed control at 500 g/ha is 0%.

What about the pest or weed control at 62 g/ha ([4]; post-emergence, Postemergence, scale 0 to 100 (0 no effect, 100 complete control), read-out: Pigweed plant response rating) of the same molecule?
The pest or weed control at 62 g/ha was 70%.

What about the pest or weed control at 62 g/ha ([4]; pre-emergence, Preemergence, scale 0 to 100, 0 no effect, 100 complete control, read-out: Plant response rating, Pigweed) of the same molecule?
Its pest or weed control at 62 g/ha is 70%.

And the “Pigweed plant response rating” value [4, 15]?
The value was 90.

And the “Plant response rating, Pigweed” value [4, 16]?
The value was 90.

And the pest or weed control at 62 g/ha ([5]; post-emergence, Postemergence, read-out: Barnyardgrass plant response rating)?
The pest or weed control at 62 g/ha was 50%.

And the pest or weed control at 62 g/ha ([5]; pre-emergence, Preemergence, read-out: Plant response rating, Barnyardgrass)?
The pest or weed control at 62 g/ha was 0%.

What about the “Barnyardgrass plant response rating” value ([5]; Postemergence, 125 g ai/ha) of the same molecule?
Its value is 80.

What about the “Plant response rating, Barnyardgrass” value ([5]; Preemergence, 125 g ai/ha) of the same molecule?
The value was 20.

What about the pest or weed control at 62 g/ha ([6]; post-emergence, Postemergence, scale 0 to 100 (0 no effect, 100 complete control), read-out: Velvetleaf plant response rating) of the same molecule?
The pest or weed control at 62 g/ha was 60%.

What about the pest or weed control at 62 g/ha ([6]; pre-emergence, Preemergence, scale 0 to 100, 0 no effect, 100 complete control, read-out: Plant response rating, Velvetleaf) of the same molecule?
The pest or weed control at 62 g/ha was 80%.

What about the “Velvetleaf plant response rating” value [6, 15] of the same molecule?
The value was 80.

And the “Plant response rating, Velvetleaf” value [6, 16]?
The value was 90.

What about the “Corn plant response rating” value (corn (Zea mays); [15]) of the same molecule?
Its value is 40.

And the “Plant response rating, Corn” value (corn (Zea mays); [16])?
Its value is 20.

What about the plant injury at 62 g/ha (corn (Zea mays); Zea mays, post-emergence, Postemergence, 62 g ai/ha, scale 0 to 100 (0 no effect, 100 complete control), read-out: Corn plant response rating) of the same molecule?
Its plant injury at 62 g/ha is 10%.

What about the Corn plant response rating (crop injury, 0 = no effect, 100 = complete kill) at 62 g/ha (corn (Zea mays); Zea mays, pre-emergence, Preemergence, 62 g ai/ha, scale 0 to 100, 0 no effect, 100 complete control) of the same molecule?
Its Corn plant response rating (crop injury, 0 = no effect, 100 = complete kill) at 62 g/ha is 0%.

And the pest or weed control at 62 g/ha ([7]; post-emergence, Postemergence, scale 0 to 100 (0 no effect, 100 complete control), read-out: Morningglory plant response rating)?
Its pest or weed control at 62 g/ha is 90%.

What about the pest or weed control at 62 g/ha ([7]; pre-emergence, Preemergence, scale 0 to 100, 0 no effect, 100 complete control, read-out: Plant response rating, Morningglory) of the same molecule?
Its pest or weed control at 62 g/ha is 50%.

And the “Morningglory plant response rating” value [7, 15]?
The value was 90.

And the “Plant response rating, Morningglory” value [7, 16]?
The value was 60.

What about the “Foxtail, Giant plant response rating” value [8, 15] of the same molecule?
Its value is 50.

And the “Plant response rating, Foxtail, Giant” value [8, 16]?
Its value is 10.

And the pest or weed control at 62 g/ha ([8]; post-emergence, Postemergence, scale 0 to 100 (0 no effect, 100 complete control), read-out: Foxtail, Giant plant response rating)?
The pest or weed control at 62 g/ha was 20%.

What about the pest or weed control at 62 g/ha ([8]; pre-emergence, Preemergence, scale 0 to 100, 0 no effect, 100 complete control, read-out: Plant response rating, Foxtail, Giant) of the same molecule?
The pest or weed control at 62 g/ha was 0%.

What about the “Wheat plant response rating” value ([9]; Postemergence, 125 g ai/ha) of the same molecule?
The value was 50.

And the “Plant response rating, Wheat” value ([9]; Preemergence, 125 g ai/ha)?
Its value is 60.

What about the plant injury at 62 g/ha ([9]; post-emergence, Postemergence, read-out: Wheat plant response rating) of the same molecule?
Its plant injury at 62 g/ha is 30%.

What about the plant injury at 62 g/ha ([9]; pre-emergence, Preemergence, read-out: Plant response rating, Wheat) of the same molecule?
The plant injury at 62 g/ha was 10%.

And the pest or weed control at 62 g/ha ([10]; post-emergence, Postemergence, scale 0 to 100 (0 no effect, 100 complete control), read-out: Crabgrass plant response rating)?
The pest or weed control at 62 g/ha was 20%.

And the pest or weed control at 62 g/ha ([10]; pre-emergence, Preemergence, scale 0 to 100, 0 no effect, 100 complete control, read-out: Plant response rating, Crabgrass)?
The pest or weed control at 62 g/ha was 40%.

What about the “Crabgrass plant response rating” value [10, 15] of the same molecule?
The value was 40.

What about the “Plant response rating, Crabgrass” value [10, 16] of the same molecule?
The value was 70.

And the “Cocklebur plant response rating” value [11, 15]?
The value was 90.

And the “Plant response rating, Cocklebur” value [11, 16]?
Its value is 80.

And the pest or weed control at 62 g/ha ([11]; post-emergence, Postemergence, scale 0 to 100 (0 no effect, 100 complete control), read-out: Cocklebur plant response rating)?
Its pest or weed control at 62 g/ha is 90%.

What about the pest or weed control at 62 g/ha ([11]; pre-emergence, Preemergence, scale 0 to 100, 0 no effect, 100 complete control, read-out: Plant response rating, Cocklebur) of the same molecule?
Its pest or weed control at 62 g/ha is 70%.

What about the “Surinam Grass plant response rating” value [12, 15] of the same molecule?
The value was 80.

And the “Plant response rating, Surinam Grass” value [12, 16]?
The value was 60.

And the pest or weed control at 62 g/ha ([12]; post-emergence, Postemergence, scale 0 to 100 (0 no effect, 100 complete control), read-out: Surinam Grass plant response rating)?
Its pest or weed control at 62 g/ha is 30%.

What about the pest or weed control at 62 g/ha ([12]; pre-emergence, Preemergence, scale 0 to 100, 0 no effect, 100 complete control, read-out: Plant response rating, Surinam Grass) of the same molecule?
Its pest or weed control at 62 g/ha is 20%.

What about the pest or weed control at 62 g/ha ([13]; post-emergence, Postemergence, scale 0 to 100 (0 no effect, 100 complete control), read-out: Lambsquarters plant response rating) of the same molecule?
Its pest or weed control at 62 g/ha is 80%.

And the pest or weed control at 62 g/ha ([13]; pre-emergence, Preemergence, scale 0 to 100, 0 no effect, 100 complete control, read-out: Plant response rating, Lambsquarters)?
The pest or weed control at 62 g/ha was 70%.

What about the “Lambsquarters plant response rating” value [13, 15] of the same molecule?
The value was 90.

And the “Plant response rating, Lambsquarters” value [13, 16]?
Its value is 80.

And the “Blackgrass plant response rating” value ([14]; 125 g ai/ha)?
Its value is 40.

And the pest or weed control at 62 g/ha ([14]; Alopecurus myosuroides, post-emergence, 62 g ai/ha, read-out: Blackgrass plant response rating)?
Its pest or weed control at 62 g/ha is 30%.

And the “Oat, Wild plant response rating” value (wild oat (Avena fatua); 125 g ai/ha)?
The value was 50.

What about the pest or weed control at 62 g/ha (wild oat (Avena fatua); Avena fatua, post-emergence, 62 g ai/ha, read-out: Oat, Wild plant response rating) of the same molecule?
The pest or weed control at 62 g/ha was 40%.
